According to ChEMBL document CHEMBL5291721, “A preclinical secondary pharmacology resource illuminates target-adverse drug reaction associations of marketed drugs” (Nat Commun, 2023):

Columns and labels:
[1] = target: Sodium-dependent serotonin transporter (Homo sapiens, UniProt P31645)
Progesterone receptor = target: T1, Progesterone receptor (Homo sapiens, UniProt P06401)
T1 sequence (P06401 whole entry): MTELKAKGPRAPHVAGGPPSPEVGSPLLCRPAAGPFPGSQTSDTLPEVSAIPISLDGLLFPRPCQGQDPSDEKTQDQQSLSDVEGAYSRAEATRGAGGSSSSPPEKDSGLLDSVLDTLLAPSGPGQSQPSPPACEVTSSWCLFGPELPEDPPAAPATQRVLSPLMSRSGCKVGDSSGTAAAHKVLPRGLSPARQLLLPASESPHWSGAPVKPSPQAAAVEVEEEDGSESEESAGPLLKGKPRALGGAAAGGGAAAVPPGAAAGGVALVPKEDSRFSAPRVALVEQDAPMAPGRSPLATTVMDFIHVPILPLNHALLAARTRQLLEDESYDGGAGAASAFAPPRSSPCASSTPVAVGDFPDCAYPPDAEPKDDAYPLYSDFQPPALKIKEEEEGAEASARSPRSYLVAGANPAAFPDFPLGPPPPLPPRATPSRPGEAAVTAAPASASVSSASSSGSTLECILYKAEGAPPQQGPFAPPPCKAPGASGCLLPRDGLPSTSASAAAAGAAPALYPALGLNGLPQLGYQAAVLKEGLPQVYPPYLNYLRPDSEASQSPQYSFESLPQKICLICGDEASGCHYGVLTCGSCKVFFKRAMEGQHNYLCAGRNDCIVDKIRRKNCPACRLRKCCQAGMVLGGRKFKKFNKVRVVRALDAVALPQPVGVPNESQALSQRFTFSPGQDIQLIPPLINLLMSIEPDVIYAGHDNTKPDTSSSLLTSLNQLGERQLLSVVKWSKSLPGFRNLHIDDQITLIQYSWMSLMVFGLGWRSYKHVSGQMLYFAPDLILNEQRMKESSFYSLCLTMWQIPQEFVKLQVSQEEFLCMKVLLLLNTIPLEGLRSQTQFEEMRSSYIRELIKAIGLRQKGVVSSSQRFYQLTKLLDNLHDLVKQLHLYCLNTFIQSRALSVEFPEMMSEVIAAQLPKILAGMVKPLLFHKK

[2] = target: 5-hydroxytryptamine receptor 2B (Homo sapiens, UniProt P41595)
5-hydroxytryptamine receptor 2B, sequence (P41595 whole entry): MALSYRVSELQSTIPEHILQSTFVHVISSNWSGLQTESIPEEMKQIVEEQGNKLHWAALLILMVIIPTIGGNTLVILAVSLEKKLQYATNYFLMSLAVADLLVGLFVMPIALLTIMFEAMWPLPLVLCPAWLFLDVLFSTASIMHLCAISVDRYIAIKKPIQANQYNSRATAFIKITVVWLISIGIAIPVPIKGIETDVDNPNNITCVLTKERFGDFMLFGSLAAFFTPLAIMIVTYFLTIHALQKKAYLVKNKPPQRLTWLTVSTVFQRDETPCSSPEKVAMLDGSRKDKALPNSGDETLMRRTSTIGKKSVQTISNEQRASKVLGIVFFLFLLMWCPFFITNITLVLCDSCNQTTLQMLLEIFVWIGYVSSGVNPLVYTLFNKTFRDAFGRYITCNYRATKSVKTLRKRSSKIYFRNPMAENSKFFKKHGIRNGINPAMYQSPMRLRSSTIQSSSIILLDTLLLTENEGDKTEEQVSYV

B1 bradykinin receptor = target: T2, B1 bradykinin receptor (Homo sapiens, UniProt P46663)
T2 sequence (P46663 whole entry): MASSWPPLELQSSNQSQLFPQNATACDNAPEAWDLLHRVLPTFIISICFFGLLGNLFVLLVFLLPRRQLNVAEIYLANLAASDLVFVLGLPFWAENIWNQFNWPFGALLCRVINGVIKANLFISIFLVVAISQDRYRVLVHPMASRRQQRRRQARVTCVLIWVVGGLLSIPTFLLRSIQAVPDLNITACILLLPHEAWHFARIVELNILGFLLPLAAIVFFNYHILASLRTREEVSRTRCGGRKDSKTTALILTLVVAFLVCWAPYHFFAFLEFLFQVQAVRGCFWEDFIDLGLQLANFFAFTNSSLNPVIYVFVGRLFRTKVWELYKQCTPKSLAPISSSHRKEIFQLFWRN

[3] = target: T3, Corticotropin-releasing factor receptor 1 (Homo sapiens, UniProt P34998)
T3 sequence (P34998 whole entry): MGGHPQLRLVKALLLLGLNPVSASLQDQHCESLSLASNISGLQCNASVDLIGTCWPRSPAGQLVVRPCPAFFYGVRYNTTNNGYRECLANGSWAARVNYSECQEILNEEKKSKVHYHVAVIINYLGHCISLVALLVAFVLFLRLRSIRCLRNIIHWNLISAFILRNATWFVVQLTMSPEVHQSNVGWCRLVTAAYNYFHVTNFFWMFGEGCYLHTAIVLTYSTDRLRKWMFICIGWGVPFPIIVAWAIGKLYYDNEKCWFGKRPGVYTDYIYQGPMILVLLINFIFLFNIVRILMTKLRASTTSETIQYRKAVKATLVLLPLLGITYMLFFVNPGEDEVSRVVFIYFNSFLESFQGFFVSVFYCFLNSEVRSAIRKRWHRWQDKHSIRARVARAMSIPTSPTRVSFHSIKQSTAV

Glucagon receptor = Glucagon receptor (Homo sapiens, UniProt P47871)
Glucagon receptor, sequence (P47871 whole entry): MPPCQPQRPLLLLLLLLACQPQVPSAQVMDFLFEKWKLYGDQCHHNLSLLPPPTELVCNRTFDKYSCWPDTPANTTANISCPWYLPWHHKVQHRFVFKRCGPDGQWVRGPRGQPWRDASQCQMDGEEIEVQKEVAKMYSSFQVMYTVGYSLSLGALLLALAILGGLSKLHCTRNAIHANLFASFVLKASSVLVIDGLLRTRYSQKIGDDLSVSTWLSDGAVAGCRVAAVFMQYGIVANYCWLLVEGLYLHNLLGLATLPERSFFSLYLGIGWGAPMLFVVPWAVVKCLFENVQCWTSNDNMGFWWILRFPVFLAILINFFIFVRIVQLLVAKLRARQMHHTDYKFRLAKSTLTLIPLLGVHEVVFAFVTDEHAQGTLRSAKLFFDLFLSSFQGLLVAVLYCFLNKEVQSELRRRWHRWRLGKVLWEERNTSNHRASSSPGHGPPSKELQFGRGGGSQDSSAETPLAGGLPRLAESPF

[4] = target: T4, Gastric inhibitory polypeptide receptor (Homo sapiens, UniProt P48546)
T4 sequence (P48546 whole entry): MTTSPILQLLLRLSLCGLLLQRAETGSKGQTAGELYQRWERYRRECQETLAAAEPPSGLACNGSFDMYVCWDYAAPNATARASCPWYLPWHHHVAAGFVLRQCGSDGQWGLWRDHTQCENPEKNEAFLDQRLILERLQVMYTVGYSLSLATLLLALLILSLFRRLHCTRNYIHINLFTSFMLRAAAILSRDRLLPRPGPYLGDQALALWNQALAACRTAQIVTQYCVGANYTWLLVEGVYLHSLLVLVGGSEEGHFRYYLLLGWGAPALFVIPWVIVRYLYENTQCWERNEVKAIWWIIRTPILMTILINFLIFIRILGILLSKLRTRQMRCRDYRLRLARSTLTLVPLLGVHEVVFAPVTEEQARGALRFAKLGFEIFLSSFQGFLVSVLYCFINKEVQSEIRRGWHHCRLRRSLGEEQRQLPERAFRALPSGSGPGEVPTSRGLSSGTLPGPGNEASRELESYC

[5] = target: T5, Neuropeptide Y receptor type 2 (Homo sapiens, UniProt P49146)
T5 sequence (P49146 whole entry): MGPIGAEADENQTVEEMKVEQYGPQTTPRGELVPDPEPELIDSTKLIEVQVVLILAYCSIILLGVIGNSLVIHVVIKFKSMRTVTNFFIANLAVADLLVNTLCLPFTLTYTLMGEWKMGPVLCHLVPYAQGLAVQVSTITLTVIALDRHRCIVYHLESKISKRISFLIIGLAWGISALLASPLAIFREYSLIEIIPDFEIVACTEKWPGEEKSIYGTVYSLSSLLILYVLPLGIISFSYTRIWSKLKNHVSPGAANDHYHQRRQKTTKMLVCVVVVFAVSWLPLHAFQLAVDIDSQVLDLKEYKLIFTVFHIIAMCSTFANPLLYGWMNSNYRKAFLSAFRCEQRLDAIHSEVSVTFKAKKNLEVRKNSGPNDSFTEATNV

[6] = target: Neurotensin receptor type 1 (Homo sapiens, UniProt P30989)
Neurotensin receptor type 1, sequence (P30989 whole entry): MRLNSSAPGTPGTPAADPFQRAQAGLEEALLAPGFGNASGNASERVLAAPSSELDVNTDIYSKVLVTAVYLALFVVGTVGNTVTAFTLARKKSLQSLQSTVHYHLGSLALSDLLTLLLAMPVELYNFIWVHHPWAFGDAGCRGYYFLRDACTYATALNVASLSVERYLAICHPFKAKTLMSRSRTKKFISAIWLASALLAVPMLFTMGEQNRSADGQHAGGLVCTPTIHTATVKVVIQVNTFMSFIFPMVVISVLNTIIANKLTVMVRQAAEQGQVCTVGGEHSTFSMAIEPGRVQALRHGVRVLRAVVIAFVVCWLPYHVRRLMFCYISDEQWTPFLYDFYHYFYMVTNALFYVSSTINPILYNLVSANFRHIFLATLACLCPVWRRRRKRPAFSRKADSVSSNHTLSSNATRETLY
Also: assay procedure not described here.

Sodium-dependent serotonin transporter, sequence (P31645 whole entry): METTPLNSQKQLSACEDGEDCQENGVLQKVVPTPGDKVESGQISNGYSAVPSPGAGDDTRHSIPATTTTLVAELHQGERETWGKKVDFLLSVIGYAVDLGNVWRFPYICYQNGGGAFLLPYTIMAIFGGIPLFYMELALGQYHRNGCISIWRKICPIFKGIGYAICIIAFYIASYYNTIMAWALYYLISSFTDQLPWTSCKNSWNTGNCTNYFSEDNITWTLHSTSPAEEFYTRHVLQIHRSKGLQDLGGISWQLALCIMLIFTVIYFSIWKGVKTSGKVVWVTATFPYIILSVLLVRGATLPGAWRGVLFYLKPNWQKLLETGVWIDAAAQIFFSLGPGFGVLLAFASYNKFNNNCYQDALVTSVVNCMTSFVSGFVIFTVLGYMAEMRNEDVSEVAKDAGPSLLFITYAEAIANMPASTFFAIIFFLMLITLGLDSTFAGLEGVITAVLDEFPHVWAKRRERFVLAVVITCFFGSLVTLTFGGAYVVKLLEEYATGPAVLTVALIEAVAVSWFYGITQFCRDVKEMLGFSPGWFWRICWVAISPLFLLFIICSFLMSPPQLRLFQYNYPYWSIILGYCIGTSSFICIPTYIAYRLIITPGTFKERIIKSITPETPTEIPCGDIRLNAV

## c1ccc2c(c1)CCc1ccccc1N2C1CN2CCC1CC2 (stereo unspecified) [QUINUPRAMINE]
[1]
  AC50: 0.507 µM

## CNC1=Nc2ccc(Cl)cc2C(c2ccccc2)=[N+]([O-])C1 [CHLORDIAZEPOXIDE]
Progesterone receptor
  AC50: > 30 µM

## CCC[C@H](NC(=O)[C@@H]1[C@H]2CCC[C@H]2CN1C(=O)[C@@H](NC(=O)[C@@H](NC(=O)c1cnccn1)C1CCCCC1)C(C)(C)C)C(=O)C(=O)NC1CC1
[2]
  AC50: > 10 µM
Progesterone receptor
  AC50: > 30 µM

## CC(CCc1ccc(O)cc1)NCCc1ccc(O)c(O)c1 (stereo unspecified) [DOBUTAMINE]
B1 bradykinin receptor
  AC50: > 30 µM
[3]
  AC50: > 30 µM
Glucagon receptor
  AC50: > 30 µM
[4]
  AC50: > 30 µM
[2]
  AC50: > 10 µM
[5]
  AC50: > 30 µM
[6]
  AC50: > 30 µM
Progesterone receptor
  AC50: > 30 µM

## C[C@H](Cc1cc2c(c(C(N)=O)c1)N(CCCO)CC2)NCCOc1ccccc1OCC(F)(F)F [SILODOSIN]
[1]
  AC50: > 30 µM

## C=CCSCC1Nc2cc(Cl)c(S(N)(=O)=O)cc2S(=O)(=O)N1 (stereo unspecified) [ALTHIAZIDE]
[1]
  AC50: > 30 µM

## OC1(c2ccc(Cl)cc2)c2ccccc2C2=NCCN21 (stereo unspecified) [MAZINDOL]
B1 bradykinin receptor
  AC50: > 30 µM
[3]
  AC50: > 30 µM
Glucagon receptor
  AC50: > 30 µM
[4]
  AC50: > 30 µM
[2]
  AC50: > 10 µM
[5]
  AC50: > 30 µM
[6]
  AC50: > 30 µM
Progesterone receptor
  AC50: > 30 µM

## O=[N+]([O-])c1ccc(O)c2ncccc12 [NITROXOLINE]
[1]
  AC50: > 30 µM

## Oc1ccc2c(c1)CC[C@H](c1ccccc1)[C@@H]2c1ccc(OCCN2CCCC2)cc1 [LASOFOXIFENE]
[2]
  AC50: 0.272 µM

## CN(C)CCOC(c1ccccc1)c1ccc(Br)cc1 (stereo unspecified) [BROMODIPHENHYDRAMINE]
[1]
  AC50: 0.207 µM

## NC(=O)OCC(O)COc1ccc(Cl)cc1 (stereo unspecified) [CHLORPHENESIN CARBAMATE]
[1]
  AC50: > 30 µM

## CC(C)COCC(CN(Cc1ccccc1)c1ccccc1)N1CCCC1 (stereo unspecified) [BEPRIDIL]
B1 bradykinin receptor
  AC50: > 30 µM
[3]
  AC50: > 30 µM
Glucagon receptor
  AC50: > 30 µM
[4]
  AC50: > 30 µM
[5]
  AC50: > 30 µM
[6]
  AC50: > 30 µM
Progesterone receptor
  AC50: > 30 µM

## CCC(=O)O[C@]1(C(=O)SCF)[C@H](C)C[C@H]2[C@@H]3C[C@H](F)C4=CC(=O)C=C[C@]4(C)[C@@]3(F)[C@@H](O)C[C@@]21C [FLUTICASONE PROPIONATE]
B1 bradykinin receptor
  AC50: > 30 µM
[3]
  AC50: > 30 µM
Glucagon receptor
  AC50: > 30 µM
[4]
  AC50: > 30 µM
[2]
  AC50: > 10 µM
[5]
  AC50: > 30 µM
[6]
  AC50: > 30 µM

## CN1CCN(C2=Nc3ccccc3Oc3ccc(Cl)cc32)CC1 [LOXAPINE]
B1 bradykinin receptor
  AC50: > 30 µM
[3]
  AC50: > 30 µM
Glucagon receptor
  AC50: > 30 µM
[4]
  AC50: > 30 µM
[5]
  AC50: > 30 µM
[6]
  AC50: > 30 µM
Progesterone receptor
  AC50: > 30 µM

## CN(C)CCCNc1c2ccccc2nc2cccc([N+](=O)[O-])c12 [NITRACRINE]
[2]
  AC50: 0.2 µM

## CCC(=O)O[C@]1(C(=O)CCl)[C@@H](C)C[C@H]2[C@@H]3C[C@H](F)C4=CC(=O)C=C[C@]4(C)[C@@]3(F)[C@@H](O)C[C@@]21C [HALOBETASOL PROPIONATE]
[1]
  AC50: > 30 µM

## Cc1ncc(COP(=O)(O)O)c(C=O)c1O [PYRIDOXAL PHOSPHATE ANHYDROUS]
[1]
  AC50: > 30 µM

## CC(N)Cc1ccc(O)cc1 (stereo unspecified) [HYDROXYAMPHETAMINE]
[1]
  AC50: > 30 µM

## CC(C)N(CCNC(=O)CN1CCCC1=O)C(C)C
[1]
  AC50: > 30 µM

## COc1cc(N)c(Cl)cc1C(=O)NC1CCN(Cc2ccccc2)CC1 [CLEBOPRIDE]
[2]
  AC50: 0.0079 µM

## CC1=CCC(C(C)(C)O)CC1O (stereo unspecified) [SOBREROL]
[1]
  AC50: > 30 µM

## NCC(CC(=O)O)c1ccccc1 (stereo unspecified) [PHENIBUT]
[1]
  AC50: > 30 µM

## CN1CCC(=C2c3ccccc3CCc3cccnc32)CC1 [AZATADINE]
Progesterone receptor
  AC50: > 30 µM

## CCCC(CCC)C(N)=O [VALPROMIDE]
Progesterone receptor
  AC50: > 30 µM

## Cc1cc(C(C)(C)C)cc(C)c1CC1=NCCN1 [XYLOMETAZOLINE]
[2]
  AC50: 1.56 µM

## COc1cc(N2CCC(N3CCN(C)CC3)CC2)ccc1Nc1ncc(Cl)c(Nc2ccccc2P(C)(C)=O)n1 [BRIGATINIB]
[1]
  AC50: > 30 µM

## O=C(O)c1cn(C2CC2)c2cc(N3CCNCC3)c(F)cc2c1=O [CIPROFLOXACIN]
B1 bradykinin receptor
  AC50: > 30 µM
[3]
  AC50: > 30 µM
Glucagon receptor
  AC50: > 30 µM
[4]
  AC50: > 30 µM
[5]
  AC50: > 30 µM
[6]
  AC50: > 30 µM
Progesterone receptor
  AC50: > 30 µM

## Cc1cc(N)c2ccccc2[n+]1CCCCCCCCCC[n+]1c(C)cc(N)c2ccccc21
[1]
  AC50: 0.185 µM

## CC12CC3CC(C)(C1)CC(N)(C3)C2 [MEMANTINE]
B1 bradykinin receptor
  AC50: > 30 µM
[3]
  AC50: > 30 µM
Glucagon receptor
  AC50: > 30 µM
[4]
  AC50: > 30 µM
[5]
  AC50: > 30 µM
[6]
  AC50: > 30 µM
Progesterone receptor
  AC50: > 30 µM

## CN1C(=O)/C(=N\NC(N)=S)c2ccccc21 [METHISAZONE]
[1]
  AC50: > 30 µM

## CCOC(=O)C1=C[C@]2(CC)CCCN3CCc4c(n1c1ccccc41)[C@@H]32 [VINPOCETINE]
[2]
  AC50: > 30 µM

## CCN(CCCc1ccccc1)CCCc1ccccc1 [ALVERINE]
[1]
  AC50: 1.7 µM

## COc1cc2c(cc1OC)CC(=O)N(CCCN(C)C[C@H]1Cc3cc(OC)c(OC)cc31)CC2 [IVABRADINE]
[1]
  AC50: 11.9 µM

## Cc1cnc(C(=O)NCCc2ccc(S(=O)(=O)NC(=O)NC3CCCCC3)cc2)cn1 [GLIPIZIDE]
B1 bradykinin receptor
  AC50: > 30 µM
[3]
  AC50: > 30 µM
Glucagon receptor
  AC50: > 30 µM
[4]
  AC50: > 30 µM
[5]
  AC50: > 30 µM
[6]
  AC50: > 30 µM
Progesterone receptor
  AC50: > 30 µM

## CCCCC(=O)O[C@]1(C(=O)CO)[C@@H](C)C[C@H]2[C@@H]3CCC4=CC(=O)C=C[C@]4(C)[C@@]3(F)[C@@H](O)C[C@@]21C [BETAMETHASONE VALERATE]
Progesterone receptor
  AC50: 0.13 µM

## CCN(CC)C(=S)S [DITIOCARB]
[1]
  AC50: > 30 µM

## CCCc1nc(C(C)(C)O)c(C(=O)O)n1Cc1ccc(-c2ccccc2-c2nnn[nH]2)cc1 [OLMESARTAN]
[1]
  AC50: > 30 µM

## CCOC(=O)[C@H](CCc1ccccc1)N[C@@H](C)C(=O)N(CC(=O)O)C1Cc2ccccc2C1
[1]
  AC50: > 30 µM

## Cc1cc(NC(=O)C2=C(O)c3ccccc3S(=O)(=O)N2C)no1 [ISOXICAM]
[1]
  AC50: > 30 µM

## CCOC(=O)N1CSC[C@H]1C(=O)O [TELMESTEINE]
[1]
  AC50: > 30 µM
